{
  "source": "patent US20130096193A1",
  "about": "“CREATINE BETA-ALANINATE: A NOVEL SALT FOR INCREASING ATHLETIC PERFORMANCE” (priority 2009, published 2013)",
  "key": {"[1]": {"conditions": "cited from earlier work"}, "[2]": {"conditions": "after 10 week supplementation; cited from earlier work"}},
  "note": "Like-named read-outs stand apart in the source and are kept apart here.",
  "data": [
    {"compound": "creatine β-alaninate", "values": [
      {"measurement": "additional β-alanine administrable before symptoms of paraesthesia, compared with β-alanine alone", "setting": "human subjects, oral", "result": "roughly 100%"},
      {"measurement": "single oral dose administered before the onset of paraesthesia was noted", "setting": "human subjects, oral, gelatin capsules, single dose", "result": "up to 55.00 mg/kg"},
      {"measurement": "equivalent β-alanine dose before onset of paraesthesia", "setting": "salt mass is about 40.45% β-alanine", "result": "about 22.25 mg/kg"}
    ]},
    {"compound": "NCCC(=O)O", "note": "[β-alanine, 3-Aminopropanoic acid]", "values": [
      {"measurement": "paraesthesia symptoms", "setting": "[1]; 10 mg per kg body weight, some individuals", "result": "mild symptoms"},
      {"measurement": "paraesthesia symptoms", "setting": "[1]; 20 mg per kg bodyweight, majority of individuals", "result": "significant symptoms"},
      {"measurement": "paraesthesia symptoms", "setting": "[1]; 40 mg per kg body weight", "result": "severe symptoms"},
      {"measurement": "ingested amount that causes paraesthesia", "setting": "[1]; in solution or as powder in gelatin capsules", "result": "above 10 mg per kg body weight"},
      {"measurement": "duration of paraesthesia", "setting": "[1]; oral", "result": "up to 1 hour"},
      {"measurement": "time to beginning of paraesthesia after oral administration", "setting": "[1]; oral", "result": "about 20 minutes"},
      {"measurement": "increase in intramuscular carnosine content, average", "setting": "[2]", "result": 80.1, "unit": "%"}
    ]}
  ]
}
